Assay results from ChEMBL document CHEMBL5634084, “Design and optimization of selective and potent CDK9 inhibitors with flavonoid scaffold for the treatment of acute myeloid leukemia” (Eur J Med Chem, 2023).
In brackets after ≈: the same amount, converted by molar mass. Activity calls are given as the source filed them. The calls are words filed in the database; no cut-off is given here.

What was measured:
[1] = target: Mitogen-activated protein kinase kinase kinase kinase 2 (Homo sapiens) (UniProt Q12851); assay: Inhibition of wild type partial length human MAP4K2 (1 to 318 residues) expressed in mammalian expression system at 1 uM by KINOMEscan analysis
Mitogen-activated protein kinase kinase kinase kinase 2 (Homo sapiens), sequence (Q12851 whole entry, the tested form may be a part): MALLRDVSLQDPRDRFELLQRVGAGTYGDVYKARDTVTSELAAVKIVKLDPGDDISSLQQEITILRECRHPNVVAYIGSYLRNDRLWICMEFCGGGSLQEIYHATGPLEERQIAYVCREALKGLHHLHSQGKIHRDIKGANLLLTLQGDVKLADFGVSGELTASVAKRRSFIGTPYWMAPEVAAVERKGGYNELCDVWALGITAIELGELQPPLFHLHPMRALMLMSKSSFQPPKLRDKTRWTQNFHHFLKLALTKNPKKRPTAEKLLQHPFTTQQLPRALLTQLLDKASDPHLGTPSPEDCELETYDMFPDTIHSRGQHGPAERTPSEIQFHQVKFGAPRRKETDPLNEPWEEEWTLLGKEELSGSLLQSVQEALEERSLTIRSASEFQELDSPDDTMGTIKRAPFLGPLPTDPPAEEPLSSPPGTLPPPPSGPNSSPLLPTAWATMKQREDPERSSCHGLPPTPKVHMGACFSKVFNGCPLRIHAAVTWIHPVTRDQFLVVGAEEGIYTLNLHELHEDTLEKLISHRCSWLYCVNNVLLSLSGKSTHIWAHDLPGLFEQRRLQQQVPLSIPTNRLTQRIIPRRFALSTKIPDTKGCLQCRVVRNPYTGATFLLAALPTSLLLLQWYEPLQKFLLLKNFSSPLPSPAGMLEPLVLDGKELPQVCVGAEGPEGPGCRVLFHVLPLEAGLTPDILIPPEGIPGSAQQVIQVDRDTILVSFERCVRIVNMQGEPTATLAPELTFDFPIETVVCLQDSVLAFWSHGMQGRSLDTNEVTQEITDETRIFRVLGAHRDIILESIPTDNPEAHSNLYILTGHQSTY

THP-1 = assay: Antiproliferative activity against human THP-1 cells assessed as reduction in cell viability measured after 72 hrs; type: functional, cell-based; details: THP-1, 72 h
[2] = target: NUAK family SNF1-like kinase 2 (Homo sapiens) (UniProt Q9H093); assay: Inhibition of wild type partial length human SNARK (22 to 333 residues) expressed in mammalian expression system at 1 uM by KINOMEscan analysis
NUAK family SNF1-like kinase 2 (Homo sapiens), sequence (Q9H093 whole entry, the tested form may be a part): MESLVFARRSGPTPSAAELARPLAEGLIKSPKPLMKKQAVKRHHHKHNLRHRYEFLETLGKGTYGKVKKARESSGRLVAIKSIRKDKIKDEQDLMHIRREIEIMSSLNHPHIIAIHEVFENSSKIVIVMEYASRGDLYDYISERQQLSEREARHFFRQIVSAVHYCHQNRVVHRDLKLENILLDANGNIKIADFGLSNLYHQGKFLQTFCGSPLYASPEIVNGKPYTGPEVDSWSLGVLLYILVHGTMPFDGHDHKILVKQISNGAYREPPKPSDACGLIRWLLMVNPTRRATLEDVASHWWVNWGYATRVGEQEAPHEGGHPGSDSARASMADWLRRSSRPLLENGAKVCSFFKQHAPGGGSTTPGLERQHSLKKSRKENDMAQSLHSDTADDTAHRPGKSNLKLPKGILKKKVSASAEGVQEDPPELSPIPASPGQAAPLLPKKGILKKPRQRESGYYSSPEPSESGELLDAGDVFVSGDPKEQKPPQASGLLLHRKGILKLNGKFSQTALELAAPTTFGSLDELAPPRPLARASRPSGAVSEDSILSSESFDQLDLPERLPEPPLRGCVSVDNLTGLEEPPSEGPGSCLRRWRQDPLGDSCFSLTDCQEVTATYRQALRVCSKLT

[3] = Inhibition of CDK1/CyclinA2 (unknown origin) by ADP-Glo assay; set-up: species or system Homo sapiens
[4] = target: Myosin-IIIb (Homo sapiens) (UniProt Q8WXR4); assay: Inhibition of wild type partial length human MYO3B (1 to 357 residues) expressed in bacterial expression system at 1 uM by KINOMEscan analysis
MV4-11 [5] = assay: Induction of cell cycle arrest in human MV4-11 cells assessed as accumulation of cells at S phase at 0.2 uM incubated fo 36 hrs by propidium iodide staining based flow cytometry (reference value: 26.5%); type: functional
HepG2 = assay: Antiproliferative activity against human HepG2 cells assessed as reduction in cell viability measured after 72 hrs; type: functional, cell-based; details: HepG2, 72 h
MV4-11 [6] = assay: Antitumor activity against human MV4-11 cells xenografted in BALB/c mouse assessed as inhibition of tumor growth at 15 mg/kg, iv qd and measured every 2 days; type: functional; details: MV4-11, 48 h, read-out: TGI
MV4-11 [7] = assay: Induction of apoptosis in human MV4-11 cells assessed as late apoptotic cells at 4 uM incubated for 24 hrs by AnnexinV-FITC/PI staining based flow cytometry (reference value: 5.21%); type: functional
MV4-11 [8] = assay: Induction of cell cycle arrest in human MV4-11 cells assessed as accumulation of cells at G0/G1 phase at 0.4 uM incubated fo 36 hrs by propidium iodide staining based flow cytometry (reference value: 64%); type: functional
[9] = Toxicity in BALB/c mouse xenografted with human MV4-11 cells assessed as effect on body weight at 7.5 to 15 mg/kg, iv qd; type: organism-based; details: in vivo, dose 7.5-15 mg/kg
[10] = target: Cyclin-dependent kinase 9 (Homo sapiens) (UniProt P50750); assay: Inhibition of CDK9 in human MV4-11 cells assessed as reduction in Mcl-1 mRNA expression at 0.1 to 2 uM incubated for 12 hrs by qPCR analysis; type: cell-based; details: dose 0.1-2 µM
Cyclin-dependent kinase 9 (Homo sapiens), sequence (P50750 whole entry, the tested form may be a part): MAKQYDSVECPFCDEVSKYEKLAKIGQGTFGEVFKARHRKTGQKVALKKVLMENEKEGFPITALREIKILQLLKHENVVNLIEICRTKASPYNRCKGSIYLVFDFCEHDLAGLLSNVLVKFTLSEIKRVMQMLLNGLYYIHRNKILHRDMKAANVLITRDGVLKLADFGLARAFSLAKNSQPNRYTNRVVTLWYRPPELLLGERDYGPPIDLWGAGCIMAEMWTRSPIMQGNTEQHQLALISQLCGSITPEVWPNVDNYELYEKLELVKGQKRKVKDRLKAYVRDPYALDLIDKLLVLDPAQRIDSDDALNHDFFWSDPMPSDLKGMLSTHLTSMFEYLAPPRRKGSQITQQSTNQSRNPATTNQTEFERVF

[11] = target: Cyclin-dependent kinase 4/cyclin D1 (Homo sapiens) (UniProt P11802+P24385); assay: Inhibition of wild type full length human CDK4 (1 to 303 residues)/CyclinD1 expressed in mammalian expression system at 1 uM by KINOMEscan analysis
A549 = assay: Antiproliferative activity against human A549 cells assessed as reduction in cell viability measured after 72 hrs; type: functional, cell-based; details: A549, 72 h
MV4-11 [12] = assay: Induction of apoptosis in human MV4-11 cells assessed as late apoptotic cells at 0.5 uM incubated for 24 hrs by AnnexinV-FITC/PI staining based flow cytometry (reference value: 5.21%); type: functional
MV4-11 [13] = assay: Induction of apoptosis in human MV4-11 cells assessed as viable cells at 2 uM incubated for 24 hrs by AnnexinV-FITC/PI staining based flow cytometry (reference value: 93.4%); type: functional; details: read-out: Activity
MV4-11 [14] = assay: Induction of cell cycle arrest in human MV4-11 cells assessed as accumulation of cells at S phase at 0.1 uM incubated fo 36 hrs by propidium iodide staining based flow cytometry (reference value: 26.5%); type: functional
[15] = target: Calcium-dependent protein kinase 1 (Plasmodium falciparum) (UniProt P62344); assay: Inhibition of wild type full length Plasmodium falciparum PFCDPK1 (1 to 524 residues) expressed in mammalian expression system at 1 uM by KINOMEscan analysis
Calcium-dependent protein kinase 1 (Plasmodium falciparum), sequence (P62344 2-524 limits assumed): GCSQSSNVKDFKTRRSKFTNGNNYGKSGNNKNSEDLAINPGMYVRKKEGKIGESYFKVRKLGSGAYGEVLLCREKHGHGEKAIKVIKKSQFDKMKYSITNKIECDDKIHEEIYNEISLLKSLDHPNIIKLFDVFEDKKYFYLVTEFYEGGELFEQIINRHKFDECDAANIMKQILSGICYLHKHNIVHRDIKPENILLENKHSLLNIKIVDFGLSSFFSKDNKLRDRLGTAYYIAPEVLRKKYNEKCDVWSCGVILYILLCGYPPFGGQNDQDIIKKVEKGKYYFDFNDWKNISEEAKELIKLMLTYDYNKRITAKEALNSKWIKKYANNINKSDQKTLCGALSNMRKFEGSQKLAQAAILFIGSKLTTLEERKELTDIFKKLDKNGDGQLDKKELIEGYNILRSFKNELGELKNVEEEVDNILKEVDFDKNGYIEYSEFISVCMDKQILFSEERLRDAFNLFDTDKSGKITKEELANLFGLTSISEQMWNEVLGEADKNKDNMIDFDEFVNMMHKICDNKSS

[16] = Cytotoxicity against human L02 cells assessed as reduction in cell viability measured after 72 hrs; type: toxicity, cell-based
[17] = Metabolic stability of the compound in rat plasma at 10 uM measured for 60 mins by LC-MS/MS analysis; type: ADME, cell-free; details: 1 h
MV4-11 [18] = assay: Induction of apoptosis in human MV4-11 cells assessed as early apoptotic cells at 1 uM incubated for 24 hrs by AnnexinV-FITC/PI staining based flow cytometry (reference value: 1.42%); type: functional
MV4-11 [19] = assay: Induction of cell cycle arrest in human MV4-11 cells assessed as accumulation of cells at S phase at 0.4 uM incubated fo 36 hrs by propidium iodide staining based flow cytometry (reference value: 26.5%); type: functional
[20] = target: Cyclin-dependent kinase 12 (Homo sapiens) (UniProt Q9NYV4); assay: Inhibition of wild type partial length human CDK12 (697 to 1077 residues) to expressed in mammalian expression system at 1 uM by KINOMEscan analysis
Cyclin-dependent kinase 12 (Homo sapiens), sequence (Q9NYV4 whole entry, looked up, the tested form may be a part): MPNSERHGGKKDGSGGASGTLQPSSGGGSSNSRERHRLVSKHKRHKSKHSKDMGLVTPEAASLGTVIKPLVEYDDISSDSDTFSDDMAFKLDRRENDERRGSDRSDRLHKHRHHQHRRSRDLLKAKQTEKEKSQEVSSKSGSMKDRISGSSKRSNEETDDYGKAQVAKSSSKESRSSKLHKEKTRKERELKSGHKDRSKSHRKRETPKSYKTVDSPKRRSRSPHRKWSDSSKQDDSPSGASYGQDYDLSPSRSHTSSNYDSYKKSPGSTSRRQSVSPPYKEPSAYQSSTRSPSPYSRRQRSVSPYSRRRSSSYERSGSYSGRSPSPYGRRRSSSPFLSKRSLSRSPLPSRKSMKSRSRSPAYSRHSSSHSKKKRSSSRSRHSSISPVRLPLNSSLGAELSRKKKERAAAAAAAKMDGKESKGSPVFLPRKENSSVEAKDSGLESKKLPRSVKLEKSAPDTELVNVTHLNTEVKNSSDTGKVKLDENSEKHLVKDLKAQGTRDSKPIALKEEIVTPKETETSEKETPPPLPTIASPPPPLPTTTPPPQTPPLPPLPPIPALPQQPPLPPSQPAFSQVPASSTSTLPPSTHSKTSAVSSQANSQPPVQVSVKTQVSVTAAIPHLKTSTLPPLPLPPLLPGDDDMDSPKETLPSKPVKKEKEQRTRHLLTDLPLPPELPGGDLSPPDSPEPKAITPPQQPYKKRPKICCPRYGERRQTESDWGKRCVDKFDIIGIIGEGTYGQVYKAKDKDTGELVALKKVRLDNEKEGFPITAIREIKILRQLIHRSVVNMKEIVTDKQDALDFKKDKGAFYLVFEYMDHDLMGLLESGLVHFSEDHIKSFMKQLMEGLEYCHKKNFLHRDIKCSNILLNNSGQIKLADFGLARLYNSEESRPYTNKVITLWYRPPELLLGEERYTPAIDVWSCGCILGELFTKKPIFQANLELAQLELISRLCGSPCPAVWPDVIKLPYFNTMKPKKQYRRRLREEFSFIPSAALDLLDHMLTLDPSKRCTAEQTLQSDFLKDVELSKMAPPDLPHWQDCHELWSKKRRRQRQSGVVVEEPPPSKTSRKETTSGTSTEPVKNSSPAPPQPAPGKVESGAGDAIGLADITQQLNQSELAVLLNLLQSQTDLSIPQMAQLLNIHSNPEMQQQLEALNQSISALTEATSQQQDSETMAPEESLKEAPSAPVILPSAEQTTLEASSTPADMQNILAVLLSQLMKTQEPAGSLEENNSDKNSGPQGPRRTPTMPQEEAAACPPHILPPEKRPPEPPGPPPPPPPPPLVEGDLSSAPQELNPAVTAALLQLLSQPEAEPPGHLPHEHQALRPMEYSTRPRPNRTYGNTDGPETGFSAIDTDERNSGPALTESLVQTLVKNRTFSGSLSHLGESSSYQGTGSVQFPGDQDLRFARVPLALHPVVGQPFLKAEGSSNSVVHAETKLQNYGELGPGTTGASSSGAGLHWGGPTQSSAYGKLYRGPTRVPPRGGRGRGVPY

[21] = target: Mitogen-activated protein kinase kinase kinase 7 (Homo sapiens) (UniProt O43318); assay: Inhibition of wild type partial length human TAK1 (1 to 303 residues) expressed in mammalian expression system at 1 uM by KINOMEscan analysis
[22] = Solubility of the compound in water at pH 7.4; type: physicochemical
CDK9/cyclin T1 = CDK9/cyclin T1 (Homo sapiens, UniProt P50750); assay: Inhibition of CDK9/CyclinT1 (unknown origin) by ADP-Glo assay; type: protein-complex assay
[23] = target: Cyclin-dependent kinase 9 (Homo sapiens) (UniProt P50750); assay: Inhibition of CDK9 in human MV4-11 cells assessed as reduction in c-Myc mRNA expression at 0.1 to 2 uM incubated for 12 hrs by qPCR analysis; type: cell-based; details: dose 0.1-2 µM
HT-29 = assay: Antiproliferative activity against human HT-29 cells assessed as reduction in cell viability measured after 72 hrs; type: functional, cell-based; details: HT-29, 72 h
MV4-11 [24] = assay: Induction of cell cycle arrest in human MV4-11 cells assessed as accumulation of cells at G2/M phase at 0.8 uM incubated fo 36 hrs by propidium iodide staining based flow cytometry (reference value: 9.5%); type: functional
[25] = target: MAP kinase-interacting serine/threonine-protein kinase 2 (Homo sapiens) (UniProt Q9HBH9); assay: Inhibition of wild type partial length human MKNK2 (63 to 388 residues) expressed in mammalian expression system at 1 uM by KINOMEscan analysis
MAP kinase-interacting serine/threonine-protein kinase 2 (Homo sapiens), sequence (Q9HBH9 whole entry, looked up, the tested form may be a part): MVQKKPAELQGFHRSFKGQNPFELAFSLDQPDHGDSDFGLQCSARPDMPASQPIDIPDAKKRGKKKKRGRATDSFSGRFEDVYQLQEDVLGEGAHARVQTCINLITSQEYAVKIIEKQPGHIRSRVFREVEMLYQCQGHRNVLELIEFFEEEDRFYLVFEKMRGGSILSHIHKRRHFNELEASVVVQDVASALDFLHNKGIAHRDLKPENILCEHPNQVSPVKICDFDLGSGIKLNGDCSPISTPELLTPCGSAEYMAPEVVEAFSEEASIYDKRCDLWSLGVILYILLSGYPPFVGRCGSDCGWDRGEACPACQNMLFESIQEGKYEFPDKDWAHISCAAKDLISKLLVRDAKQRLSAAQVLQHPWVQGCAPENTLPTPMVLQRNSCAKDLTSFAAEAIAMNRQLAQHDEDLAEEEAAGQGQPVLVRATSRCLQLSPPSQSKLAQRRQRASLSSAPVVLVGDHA

MV4-11 [26] = assay: Induction of apoptosis in human MV4-11 cells assessed as necrotic cells at 4 uM incubated for 24 hrs by AnnexinV-FITC/PI staining based flow cytometry (reference value: 0%); type: functional
MCF7 = assay: Antiproliferative activity against human MCF7 cells assessed as reduction in cell viability measured after 72 hrs; type: functional, cell-based; details: MCF7, 72 h
HL-60 = assay: Antiproliferative activity against human HL-60 cells assessed as reduction in cell viability measured after 72 hrs; type: functional, cell-based; details: HL-60, 72 h
[27] = target: Cyclin-dependent kinase 4/cyclin D1 (Homo sapiens, UniProt P11802); assay: Inhibition of CDK4/CyclinD1 (unknown origin) by ADP-Glo assay; type: protein-complex assay
Cyclin-dependent kinase 4/cyclin D1, sequence (P11802 whole entry): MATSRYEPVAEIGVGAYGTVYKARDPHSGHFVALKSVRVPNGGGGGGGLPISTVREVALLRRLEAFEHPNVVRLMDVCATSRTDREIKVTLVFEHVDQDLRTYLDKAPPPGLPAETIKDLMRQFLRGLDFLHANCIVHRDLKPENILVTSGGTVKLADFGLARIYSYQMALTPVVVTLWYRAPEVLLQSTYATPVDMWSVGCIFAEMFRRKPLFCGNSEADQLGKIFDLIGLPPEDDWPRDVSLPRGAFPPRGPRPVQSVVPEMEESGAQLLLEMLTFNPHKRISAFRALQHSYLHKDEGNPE
Cyclin-dependent kinase 4/cyclin D1, sequence (P24385 whole entry, further chain): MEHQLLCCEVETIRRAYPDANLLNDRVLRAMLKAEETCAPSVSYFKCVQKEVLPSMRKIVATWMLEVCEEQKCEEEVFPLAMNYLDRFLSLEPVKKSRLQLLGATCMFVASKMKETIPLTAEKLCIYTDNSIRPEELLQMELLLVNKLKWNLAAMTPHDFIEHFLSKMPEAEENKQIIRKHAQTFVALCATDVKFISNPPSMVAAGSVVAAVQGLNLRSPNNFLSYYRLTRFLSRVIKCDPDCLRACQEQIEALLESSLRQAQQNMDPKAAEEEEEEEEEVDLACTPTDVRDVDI

MV4-11 [28] = assay: Induction of cell cycle arrest in human MV4-11 cells assessed as accumulation of cells at G2/M phase at 0.1 uM incubated fo 36 hrs by propidium iodide staining based flow cytometry (reference value: 9.5%); type: functional

Work on `COc1cc(O)c2c(=O)cc(-c3ccc(N4CCN(C)CC4)cc3)oc2c1C1=CCN(C)CC1` yielded an inhibition [1] of 9.9%, an IC50 (THP-1) of 450 nM and an inhibition [2] of 6.2%. It also gave an IC50 [3] of 4.18 µM, an inhibition [4] of 0% and an Activity (MV4-11 [5]) of 19%. For the same molecule, the IC50 (HepG2) was 410 nM, the inhibition in vivo at 15 mg/kg (MV4-11 [6]) was 65% and the Activity (MV4-11 [7]) was 21.3%. For the same molecule, the Activity (MV4-11 [8]) was 81.2%, the Activity [9] was “Non-Toxic” and the inhibition [10] was “Active”. It also gave an inhibition [11] of 5.3%, an IC50 (A549) of 700 nM and an Activity (MV4-11 [12]) of 10.2%. For the same molecule, the viability at 2 µM (MV4-11 [13]) was 3.12%, the Activity (MV4-11 [14]) was 21% and the inhibition [15] was 2.2%. For the same molecule, the IC50 at 72 h [16] was 10.6 µM, the Stability [17] was “Stable” and the Activity (MV4-11 [18]) was 9.95%. The Activity (MV4-11 [19]) was 12.8%, the inhibition [20] was 0% and the inhibition [21] was 9.5%. For the same molecule, the solubility [22] was 120 µg/mL (≈ 260 µM), the IC50 (CDK9/cyclin T1) was 6.7 nM and the inhibition [23] was “Active”. The IC50 (HT-29) was 1060 nM, the Activity (MV4-11 [24]) was 5% and the inhibition [25] was 1.6%. The Activity (MV4-11 [26]) was 0.42%, the IC50 (MCF7) was 140 nM and the IC50 (HL-60) was 180 nM. For the same molecule, the IC50 [27] was 53 nM and the Activity (MV4-11 [28]) was 8.5%.
